Experimental data from publication PMC6916368, “Cell‐Based Optimization of Covalent Reversible Ketoamide Inhibitors Bridging the Unprimed to the Primed Site of the Proteasome β5 Subunit” (Chemmedchem, 2019).

Key:
[1] = target: T1, β1c subunit of isolated human 20S proteasome (Homo sapiens, UniProt P28072); test: Proteasome inhibition assay (20 S Proteasome Assay Kit, Z‐LLE‐AMC); format: biochemical; conditions: c = 1 µM, n=1; read-out: Inhibition cCP β1
T1 construct: purchased Enzo Life Sciences
Summary of the method: (§1)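 Isolated human 20S proteasome (200 ng/well) preincubated 30 min with inhibitor, then 100 μM final Suc-LLVY-AMC (β5c, β5i) or Z-LLE-AMC (β1c) added for 60 min; fluorescence read. Residual activity at 100 nM final (n=3; β5c, β5i) or 1 μM (n=1, incl. β1c). IC50s: technical duplicates, mean of three experiments.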

[2] = target: T2, β2c subunit of isolated human 20S proteasome (Homo sapiens, UniProt Q99436); test: Proteasome inhibition assay (20 S Proteasome Assay Kit, Bz‐VGR‐AMC); format: biochemical; conditions: c = 1 µM, n=1; read-out: Inhibition cCP β2
T2 construct: purchased Enzo Life Sciences
Summary of the method: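 Isolated 20S proteasome (200 ng/well) was preincubated 30 min with inhibitor, then Bz-VGR-AMC (100 μM final) was added for 60 min and fluorescence read. Single-point residual activity was taken at 100 nM or 1 μM; IC50 was fitted from duplicates, mean of three independent experiments.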

[3] = target: T3, β5c subunit of isolated human 20S proteasome (Homo sapiens, UniProt P28074); test: Proteasome inhibition assay (20 S Proteasome Assay Kit, Suc‐LLVY‐AMC); format: biochemical
T3 construct: purchased Enzo Life Sciences
Summary of the method: as §1

[4] = target: T4, β5i subunit of isolated human 20S proteasome (Homo sapiens, UniProt P28062); test: as above; format: biochemical
T4 construct: purchased Enzo Life Sciences
Summary of the method: as §1

[5] = tested on: Danio rerio embryos; test: Danio rerio embryo toxicity assay (not dechorionated); format: in vivo
Protocol: Danio rerio embryo toxicity assay. Fish keeping protocols are approved by the Darmstadt administrative authority and documented. All fish were treated humanely. […] Embryos were decollated into separate wells containing a total volume of 200 μL and the inhibitor at the given concentration.

[6] = tested on: THP‐1 cells; test: Cell viability endpoint assay (Celltiter Blue, 72 h); format: cell-based; conditions: Homo sapiens, mean±SD from two independent experiments
Summary of the method: (§2)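 Proteasome inhibitors were tested at 1 nM to 10 μM final on 50.000 cells/well in RPMI-1640 with 0.1 % FBS, plated overnight beforehand, at 37 °C and 5 % CO2. Reagent was incubated 120 minutes before the fluorescence read. IC50 came from a sigmoidal fit of technical triplicates, as the mean of two independent experiments.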

[7] = tested on: MV4‐11 cells; test: as above; format: cell-based; conditions: Homo sapiens, MV4-11, mean±SD from two independent experiments
Summary of the method: as §2

[8] = tested on: Jurkat cells; test: as above; format: cell-based; conditions: Homo sapiens, mean±SD from two independent experiments
Summary of the method: as §2

[9] = in vitro; format: cell-based; conditions: human
Protocol: Remarkably, in THP‐1 cells the initial cytotoxicity is increasing for 3 compared to 27 until 14 h treatment (9‐fold) but is approaching to the end of the assay.
Time‐dependent determination of cell viability. For the determination of time‐dependent cytotoxic activity 5.000 cells per well were plated in a white 384 well‐plate in RPMI‐1640 medium supplemented with 0.1 % FBS. Real‐Time Glo MT cell viability assay (Promega) and inhibitor were added to the final concentration and luminescence was determined using a Tecan M1000 microplate reader at the time points indicated (SI chapter 2b, Figure S9–S17, Table S2).

Cc1cc(C)c(Oc2ccccc2)cc1NC(=O)C(=O)[C@H](CC(C)C)NC(=O)[C@H](CC(C)C)NC(=O)[C@H](CC(C)C)NC(=O)c1cc(Cl)ccc1Cl [Compound 27, 2,5‐Dichloro‐N‐((S)‐1‐(((S)‐1‐(((S)‐1‐((2,4‐dimethyl‐5‐phenoxyphenyl)amino)‐5‐methyl‐1,2‐dioxo‐hexan‐3‐yl)amino)‐4‐methyl‐1‐oxopentan‐2‐yl)amino)‐4‐methyl‐1‐oxopentan‐2‐yl)benzamide]
inhibition at 1 µM [1]: -48% | inhibition at 1 µM [2]: 6% | inhibition at 1 µM ([3]; c = 1 µM, n=1, read-out: Inhibition cCP β5): 91% | inhibition at 0.1 µM ([3]; c=100 nM, read-out: Rel. Inhibition β5c): 83% | IC50 ([3]; purified proteasome): 23 nM | Fold‐IC50 β5i/β5c ([3]; selectivity β5c over β5i): 4.2 | inhibition at 1 µM ([4]; c = 1 µM, n=1, read-out: Inhibition iCP β5): 68% | inhibition at 0.1 µM ([4]; c=100 nM, read-out: Rel. Inhibition β5i): 58% | IC50 ([4]; purified proteasome): 96 nM | Survival of embryos (not dechorionated) ([5]; 1 µM, 24 h): 100% | Survival of embryos (not dechorionated) ([5]; 1 µM, 48 h): 100% | Survival of embryos (not dechorionated) ([5]; 1 µM, 72 h): 100% | Survival of embryos (not dechorionated) ([5]; 1 µM, 96 h): 100% | Survival of embryos (not dechorionated) ([5]; 5 µM, 24 h): 100% | Survival of embryos (not dechorionated) ([5]; 5 µM, 48 h): 100% | Survival of embryos (not dechorionated) ([5]; 5 µM, 72 h): 100% | Survival of embryos (not dechorionated) ([5]; 5 µM, 96 h): 100% | Survival of embryos (not dechorionated) ([5]; 10 µM, 24 h): 100% | Survival of embryos (not dechorionated) ([5]; 10 µM, 48 h): 100% | Survival of embryos (not dechorionated) ([5]; 10 µM, 72 h): 100% | Survival of embryos (not dechorionated) ([5]; 10 µM, 96 h): 100% | Survival of embryos (not dechorionated) ([5]; 25 µM, 24 h): 100% | Survival of embryos (not dechorionated) ([5]; 25 µM, 48 h): 100% | Survival of embryos (not dechorionated) ([5]; 25 µM, 72 h): 100% | Survival of embryos (not dechorionated) ([5]; 25 µM, 96 h): 100% | IC50 [6]: 66 ± 1 nM | IC50 [7]: 7.4 ± 2.6 nM | IC50 [8]: 11 ± 1 nM | IC50 at 13 h [9]: 300 to 600 nM
